The record followed here is publication PMC8148468, “Shikimic acid protects skin cells from UV-induced senescence through activation of the NAD+-dependent deacetylase SIRT1” (Aging (Albany NY), 2021).

The first data set deals with H3K9ac (the target of SIRT1, SIRT2 and SIRT6). Description: Sirtuin activity assay in HDF: H3K9ac levels (Western blot).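 Note: screen looked for decreased acetylation as a sign of sirtuin activation.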 Format: cell-based, human. As to conditions: HDF treated 24h. As to the method: (§1) Figure 1 (A) Schematic representation of the compound testing for sirtuin activity evaluation in HDF. Cells were treated with or without the compounds for 24h and harvested for analysis. […] (C) Western Blot analysis and (D) quantification of H4K16ac and H3K9ac levels in cells treated with Resveratrol or Shikimic acid at the indicated concentrations. H4K16 and H3K9 levels were normalized to H4 and H3 levels respectively. Student T-test, *p<0.05, **p<0.01, ***p<0.001.
(§2) HDFs were plated in 100x20 mm2 cell culture plates and after 24h, fresh cell culture medium containing the compounds was added. After 24h, cells were detached with cell scrapers, harvested, and processed for qPCR or western blot.
(§3) Protein levels were analyzed as previously described. Cells were directly lysed in 1x Laemmli Buffer (Bio-Rad, USA), incubated at 95° C and centrifuged. Supernatant was subjected to SDS-polyacrylamide gel electrophoresis, and successive steps were performed as described. The list of antibodies used is included in Supplementary Table 2.
Consider `CC(C)(CO)[C@@H](O)C(=O)NCCCO` [Dexpanthenol, reference compound], for which the “effect on H3K9ac levels” value is given as “induced a similar effect on both targets”.
On to `CC1=NCC[C@@H](C(=O)O)N1` [Ectoine], for which the “effect on H3K9ac levels” value is given as “reduced the levels of H3K9ac only”.
For `c1coc(CNc2ncnc3[nH]cnc23)c1` [Kinetin], the “effect on H3K9ac levels” value is reported as “reduced the levels of H3K9ac only”.
With `O=c1c(O)c(-c2ccc(O)c(O)c2)oc2cc(O)cc(O)c12` [Quercetin, reference compound], the “effect on H3K9ac levels” value is on record as “induced a similar effect on both targets”.
Consider `Oc1ccc(/C=C/c2cc(O)cc(O)c2)cc1` [Resveratrol, reference compound], for which the “effect on H3K9ac levels” value is “induced a similar effect on both targets”.
As to `Oc1ccc2c(c1)OCO2` [Sesamol], the “effect on H3K9ac levels” value was “induced a similar effect on both targets”.
The same measure, in the same setting: with `C/C(=C\CNc1ncnc2[nH]cnc12)CO` [Zeatin] the entry was “reduced the levels of H3K9ac only”.

Another data set relates to H4K16ac (the target of SIRT1 and SIRT2). Description: Sirtuin activity assay in HDF: H4K16ac levels (Western blot). For SIRT1,2 H4K16ac: key: ↑: increase; ↓: decrease; hyphens that indicate no effect (-). The data set is classed as cell-based, human. Particulars: HDF treated 24h. Here is the method:
as §1, §2, §3
In general terms: A western blot detects proteins with antibodies after separation by electrophoresis.
As to `CC(C)(CO)[C@@H](O)C(=O)NCCCO` [Dexpanthenol, reference compound], the “effect on H4K16ac levels” value is reported as “induced a similar effect on both targets”.
In the case of `O=c1c(O)c(-c2ccc(O)c(O)c2)oc2cc(O)cc(O)c12` [Quercetin, reference compound], the “effect on H4K16ac levels” value is “induced a similar effect on both targets”.
Same read-out and setting: with `Oc1ccc(/C=C/c2cc(O)cc(O)c2)cc1` [Resveratrol, reference compound] the entry was “induced a similar effect on both targets”; with `Oc1ccc2c(c1)OCO2` [Sesamol], “induced a similar effect on both targets”.

The data set is the same for the next values; noted with them: HDF treated 24h, Figure 1B.
Regarding `CC1=NCC[C@@H](C(=O)O)N1` [Ectoine], the “SIRT1,2 H4K16ac” value is given as “-”.
Turning to `c1coc(CNc2ncnc3[nH]cnc23)c1` [Kinetin], the “SIRT1,2 H4K16ac” value is “-”.
Same read-out and setting: for `C/C(=C\CNc1ncnc2[nH]cnc12)CO` [Zeatin] the value was “-”.

The next data set concerns primary human dermal fibroblasts (HDFs).
Assay: not given
Conditions: not given
The text has this: In our efforts to identify novel factors that could prevent skin cell senescence, we developed a screening process to identify new modulators of the protective role of sirtuins in UV-induced senescence. For this purpose, we established a culture of primary human dermal fibroblasts (HDFs). […] Our first step in the screening was to establish the optimal concentrations of these compounds in the case of HDFs. […] Once established, we took these parameters into account to decide the specific working range of concentrations for each compound.
Human dermal fibroblasts (HDFs) (Promocell, Germany) from 40-year old Caucasian women were used as the in vitro model for compound viability and efficacy screening. Cells were cultured in Dulbecco's modified eagle medium (DMEM) low glucose (Biowest, France) supplemented with 10% fetal bovine serum (FBS) (Capricorn Scientific, Germany) and 10 U/mL penicillin/streptomycin (Biowest, France) in a humidified incubator at 37° C and 5% CO2. For cell passage, cells at 80% confluence were trypsinized and plated at 60% confluence. Cells between passage 13 and 18 were used for the assays. For the SIRT1 in vitro assay, HEK293 cells (ATCC, USA), used to transfect and immunoprecipitate SIRT1 protein, were grown in DMEM high glucose (Thermo Fisher Scientific, USA), supplemented with 10% FBS in a humidified incubator at 37° C and 5% CO2. The following experiments were all performed in triplicate.
(§4) The protocol for senescence induction using UVB irradiation is described in the Supplementary Methods. SA-β-Gal staining, WST-1, sulforhodamine B (SRB) and trypan blue assays were performed as previously described. For the siRNA experiments, the protocol for senescence induction using UVB irradiation was the same as in the Supplementary Methods. Specific siRNA (Horizon discovery, UK) for SIRT1, SIRT2, SIRT6, BiP or scramble siRNA were incubated for 6 hours before each irradiation step.
Consider `CC1=NCC[C@@H](C(=O)O)N1` [Ectoine], for which the “Max. non-cyt. doses” value is on record as 300 mM.

Staying with this data set, now noted: HDFs, WST-1 cell viability test.
Take `CC1=NCC[C@@H](C(=O)O)N1` [Ectoine]: the “LD50” value was determined as 359.12 mM.
With `O=c1c(O)c(-c2ccc(O)c(O)c2)oc2cc(O)cc(O)c12` [Quercetin, reference compound], the “LD50” value was 0.604 mM.
For `Oc1ccc2c(c1)OCO2` [Sesamol], the “LD50” value stood at 4.358 mM.
With `C/C(=C\CNc1ncnc2[nH]cnc12)CO` [Zeatin], the “LD50” value worked out at 2.462 mM.

Still in this data set, the particulars now being: HDFs, WST-1 cell viability test, maximum non-cytotoxic dose.
As to `Oc1ccc2c(c1)OCO2` [Sesamol], the “Max. non-cyt. doses” value came to 0.5 mM.
In the case of `C/C(=C\CNc1ncnc2[nH]cnc12)CO` [Zeatin], the “Max. non-cyt. doses” value was 1 mM.

The same data set, now with this note: female, human.
For the compound `CC(C)(CO)[C@@H](O)C(=O)NCCCO` [Dexpanthenol, reference compound], the “LD50” value stood at 262.48 mM and the “Max. non-cyt. doses” value was 100 mM.
With `c1coc(CNc2ncnc3[nH]cnc23)c1` [Kinetin], the “LD50” value turned out to be 1.835 mM and the “Max. non-cyt. doses” value was found to be 0.5 mM.
Turning to `O=c1c(O)c(-c2ccc(O)c(O)c2)oc2cc(O)cc(O)c12` [Quercetin, reference compound], the “Max. non-cyt. doses” value came out at 0.25 mM.
Consider `Oc1ccc(/C=C/c2cc(O)cc(O)c2)cc1` [Resveratrol, reference compound], for which the “LD50” value is 0.173 mM and the “Max. non-cyt. doses” value amounted to 0.05 mM.

A further data set deals with UVB-irradiated human dermal fibroblasts (HDFs). The data set can be described thus: UVB-induced senescence assay: SA-β-Gal staining. For β-Gal: key: ↑: increase; ↓: decrease; hyphens that indicate no effect (-). Format: cell-based. As to conditions: HDF, 2 cycles of UVB, compound day 1 to 7, Figure 2B. As to the method:
(§5) In the second approach, we established a method for inducing senescence in these cells with 2 cycles of UVB irradiation 72h apart (Figure 2A). The use of UVA to induce senescence was discarded due to its considerably longer time requirement, being unsuitable to screen 30 compounds within a reasonable period. Cells were treated with these compounds throughout the duration of the assay and cellular senescence was monitored with two markers: accumulation of SA-β-galactosidase (SA-β-Gal) activity, and the decrease in expression of HAS2 (hyaluronic acid synthase 2), a previously reported marker of skin senescence.
(§6) Figure 2 (A) Schematic representation of the protocol for senescence induction using UVB irradiation. Cells were treated -/+ the compounds from day 1 to 7 after seeding, irradiated with UVB on days 2 and 5 and harvested for analysis on day 7. […] (C) Phase-contrast (left column) and bright field (right column) microscope images of SA-β-Gal staining showing non-irradiated cells, UVB-irradiated cells non-treated and treated with Gallic acid or Shikimic acid at the indicated concentrations. (D) Percentage of SA-β-Gal positive cells and (E) Relative HAS2 mRNA levels in non-irradiated cells, UVB-irradiated cells and UVB-irradiated cells treated with Gallic acid or Shikimic acid at the indicated concentrations. Student T-test, *p<0.05, **p<0.01, ***p<0.001.
as §4
(§7) Senescence induction by UVB irradiation For the non-irradiation control conditions, HDF were […]
(§8) After 24h, culture medium was removed and well plates. After 24h, culture medium was removed replaced by fresh cell culture medium containing the and replaced with fresh cell culture medium containing compounds at different concentrations. After 24h, the compounds at different concentrations. […]
(§9) cell culture medium was removed, and cells were cells/plate in fresh cell culture medium containing the irradiated at 25 mJ/cm2 of UVB light (312 nm) in a Bio- compound in 6-well plates. After 3 days, cells were […]
(§10) amount of PBS. PBS was then removed and fresh cell fresh cell culture medium containing the compound in culture medium with the compound was added to each 6-well plates. After 2 days, cells were processed well. After 3 days, cells were irradiated again under the according to the qPCR, β-Gal staining, apoptosis, cell same conditions. After 2 days, cells were processed cycle or immunofluorescence protocols. according to the qPCR, β-Gal staining, apoptosis, cell cycle or immunofluorescence protocols.
`CC(C)(CO)[C@@H](O)C(=O)NCCCO` [Dexpanthenol, reference compound]: the β-Gal result is “-”.
For `CC1=NCC[C@@H](C(=O)O)N1` [Ectoine], the β-Gal entry is “-”.
Regarding `c1coc(CNc2ncnc3[nH]cnc23)c1` [Kinetin], the β-Gal result was “-”.
As for `O=c1c(O)c(-c2ccc(O)c(O)c2)oc2cc(O)cc(O)c12` [Quercetin, reference compound], the β-Gal result was “-”.
In the case of `C/C(=C\CNc1ncnc2[nH]cnc12)CO` [Zeatin], the β-Gal result is reported as “-”.

The same data set, now with this note: UVB-irradiated HDF.
As for `Oc1ccc(/C=C/c2cc(O)cc(O)c2)cc1` [Resveratrol, reference compound], the “SA-β-Gal accumulation/staining” value is reported as “increased SA-β-Gal staining”.

Still in this data set, the particulars now being: UVB-irradiated HDF, SA-β-Gal and HAS2 markers.
For `CC(C)(CO)[C@@H](O)C(=O)NCCCO` [Dexpanthenol, reference compound], the “prevention of UV-induced cellular senescence” value is on record as “did not prevent cellular senescence”.
On to `Oc1ccc2c(c1)OCO2` [Sesamol], for which the “prevention of UV-induced cellular senescence” value is given as “did not prevent cellular senescence”.

Another data set deals with HAS2 (hyaluronic acid synthase 2). The data set can be described thus: UVB-induced senescence assay: HAS2 gene expression (qPCR). Format: cell-based, human. Particulars: HDF, 2 cycles of UVB, compound day 1 to 7, Figure 2B. Here is the method:
as §5, §6
RNA was extracted from cell pellets using the Total RNA Purification Kit (Norgen, Canada), according to the manufacturer’s protocol. Extracted RNA was quantified using a NanoDrop® ND-1000 UV-Vis Spectrophotometer (Thermo Fisher Scientific, USA) and 300 ng of RNA were retrotranscribed to cDNA using the PrimeScriptTM RT reagent kit (Takara Bio Inc., Japan). cDNA was diluted 1/10 in ultrapure water and qPCR mix was prepared by adding cDNA (12 ng), SYBR green supermix (Bio Rad, USA), forward and reverse primers (0.2μM). The primers and their respective sequences are listed in Supplementary Table 1. qPCR protocol included one step at 95° C for 30 s, 40 cycles at 95° C for 10s, and 60° C for 1min. The results were analyzed with Bio-Rad CFX Manager software. BACT was used as a housekeeping gene to normalize gene expression.
as §7, §8, §9, §10
(In general: In qPCR the cycle at which signal appears reflects the starting amount.)
On to `CC(C)(CO)[C@@H](O)C(=O)NCCCO` [Dexpanthenol, reference compound], for which the HAS2 expression entry was “-”.
For `CC1=NCC[C@@H](C(=O)O)N1` [Ectoine], the HAS2 expression entry is recorded as “-”.
Regarding `c1coc(CNc2ncnc3[nH]cnc23)c1` [Kinetin], the HAS2 expression result is recorded as “-”.
As for `Oc1ccc(/C=C/c2cc(O)cc(O)c2)cc1` [Resveratrol, reference compound], the HAS2 expression entry is given as “-”.
In the case of `Oc1ccc2c(c1)OCO2` [Sesamol], the HAS2 expression entry is recorded as “-”.
Take `C/C(=C\CNc1ncnc2[nH]cnc12)CO` [Zeatin]: the HAS2 expression entry is “-”.

Staying with this data set, now noted: UVB-irradiated HDF.
For `O=c1c(O)c(-c2ccc(O)c(O)c2)oc2cc(O)cc(O)c12` [Quercetin, reference compound], the “HAS2 expression” value was “only promoted HAS2 upregulation”.
